Calls of active or inactive are those of the source. The rule behind the calls is not given here.
Legend:
[1] = tested on: Lenvatinib-resistant Huh7/Len; assay: Inhibition of cell migration in human Lenvatinib-resistant Huh7/Len cells at 5 uM incubated for 48 hrs by transwell assay; type: functional, cell-based
[2] = target: N6-adenosine-methyltransferase catalytic subunit (Homo sapiens) (UniProt Q86U44); assay: Inhibition of METTL3 in human Lenvatinib-resistant Huh7/Len cells assessed as effect on GATA3 mRNA expression level at 2 uM incubated for 72 hrs by RT-PCR analysis; type: cell-based
Chain of N6-adenosine-methyltransferase catalytic subunit (Homo sapiens) (Q86U44 whole entry): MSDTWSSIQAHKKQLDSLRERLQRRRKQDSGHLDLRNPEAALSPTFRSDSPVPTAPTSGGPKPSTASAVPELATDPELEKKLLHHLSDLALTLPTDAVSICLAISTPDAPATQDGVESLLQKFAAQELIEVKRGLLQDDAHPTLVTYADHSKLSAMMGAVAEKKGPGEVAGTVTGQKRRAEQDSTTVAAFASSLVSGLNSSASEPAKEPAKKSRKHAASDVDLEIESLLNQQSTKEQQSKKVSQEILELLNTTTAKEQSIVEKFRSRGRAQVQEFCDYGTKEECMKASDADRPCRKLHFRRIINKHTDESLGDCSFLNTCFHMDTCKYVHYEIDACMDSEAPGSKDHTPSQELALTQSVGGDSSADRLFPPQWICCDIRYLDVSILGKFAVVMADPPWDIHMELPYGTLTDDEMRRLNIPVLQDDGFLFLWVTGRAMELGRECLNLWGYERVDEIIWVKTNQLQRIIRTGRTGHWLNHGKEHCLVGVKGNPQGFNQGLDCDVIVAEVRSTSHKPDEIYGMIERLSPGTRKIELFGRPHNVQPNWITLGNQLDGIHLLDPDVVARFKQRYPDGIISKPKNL

[3] = tested on: Lenvatinib-resistant Huh7/Len; assay: Antitumor activity against human Lenvatinib-resistant Huh7/Len cells xenografted in BALB/c nude mouse assessed as reduction in m6A RNA level at 1.5 mg/kg, ip 5 times per week for 3 weeks by Dot blot assay; type: functional, organism-based
[4] = tested on: Lenvatinib-resistant Hep3B/Len; assay: Antiproliferative activity against human Lenvatinib-resistant Hep3B/Len cells assessed as inhibition of cell viability at 5 uM after 72 hrs in presence of lenvatinib by CCK-8 assay; type: functional, cell-based
[5] = tested on: Lenvatinib-resistant HCC/Len; assay: Antitumor activity against human Lenvatinib-resistant HCC/Len cells xenografted in BALB/c nude mouse model of PDX assessed as tumor growth inhibition at 1.5 mg/kg, ip cotreated with lenvatinib 5 times per week for 3 weeks; type: functional, organism-based
[6] = tested on: Lenvatinib-resistant Huh7/Len; assay: Anticancer activity against human Lenvatinib-resistant Huh7/Len cells assessed as increase in GGA motif at m6A site by MeRIP-m6A -sequencing analysis; type: functional, cell-based
[7] = target: N6-adenosine-methyltransferase catalytic subunit (Homo sapiens) (UniProt Q86U44); assay: Inhibition of METTL3 in human Lenvatinib-resistant Huh7/Len cells assessed as effect on SLC7A11 mRNA expression level at 2 uM incubated for 72 hrs by RT-PCR analysis; type: cell-based
[8] = tested on: Lenvatinib-resistant HCC/Len; assay: Antitumor activity against human Lenvatinib-resistant HCC/Len cells xenografted in BALB/c nude mouse model of PDX assessed as reduction in Ki-67 protein expression in tumor tissue at 1.5 mg/kg, ip cotreated with lenvatinib 5 times per week for 3 weeks by immunohistochemistry analysis relative to control; type: functional, organism-based
[9] = target: N6-adenosine-methyltransferase catalytic subunit (Homo sapiens) (UniProt Q86U44); assay: Inhibition of METTL3 in human Lenvatinib-resistant Huh7/Len cells assessed as effect on TET1 mRNA expression level at 2 uM incubated for 72 hrs by RT-PCR analysis; type: cell-based
[10] = tested on: Lenvatinib-resistant HCC/Len; assay: Antitumor activity against human Lenvatinib-resistant HCC/Len cells xenografted in BALB/c nude mouse model of PDX assessed as reduction in METTL3 protein expression at 1.5 mg/kg, ip 5 times per week for 3 weeks by Western blot assay; type: functional, organism-based
[11] = target: N6-adenosine-methyltransferase catalytic subunit (Homo sapiens) (UniProt Q86U44); assay: Inhibition of METTL3 in human Lenvatinib-resistant Huh7/Len cells assessed as effect on EZH2 mRNA expression level at 2 uM incubated for 72 hrs by RT-PCR analysis; type: cell-based
[12] = tested on: Lenvatinib-resistant Huh7/Len; assay: Anticancer activity against human Lenvatinib-resistant Huh7/Len cells assessed as increase in m6A modification in terminator region by MeRIP-m6A -sequencing analysis; type: functional, cell-based
[13] = target: N6-adenosine-methyltransferase catalytic subunit (Homo sapiens) (UniProt Q86U44); assay: Inhibition of METTL3 in human Lenvatinib-resistant Huh7/Len cells assessed as effect on HNF4A mRNA expression level at 2 uM incubated for 72 hrs by RT-PCR analysis; type: cell-based
[14] = Toxicity in BALB/c nude mouse PDX model xenografted with human Lenvatinib-resistant HCC/Len cells assessed as changes in organ index at 1.5 mg/kg, ip cotreated with lenvatinib 5 times per week for 3 weeks; type: organism-based; settings: in vivo, 504 h
[15] = target: N6-adenosine-methyltransferase catalytic subunit (Homo sapiens) (UniProt Q86U44); assay: Inhibition of METTL3 in human Huh-7 cells assessed as down regulation of m6A RNA level at 2 uM incubated for 72 hrs by colorimetric analysis; type: cell-based
[16] = target: N6-adenosine-methyltransferase catalytic subunit (Homo sapiens) (UniProt Q86U44); assay: Inhibition of METTL3 in human Lenvatinib-resistant Huh7/Len cells assessed as effect on IFFO1 mRNA expression level at 2 uM incubated for 72 hrs by RT-PCR analysis; type: cell-based
[17] = target: N6-adenosine-methyltransferase catalytic subunit (Homo sapiens) (UniProt Q86U44); assay: Inhibition of METTL3 in human Lenvatinib-resistant Huh7/Len cells assessed as effect on AKT1 mRNA expression level at 2 uM incubated for 72 hrs by RT-PCR analysis; type: cell-based
[18] = target: N6-adenosine-methyltransferase catalytic subunit (Homo sapiens) (UniProt Q86U44); assay: Inhibition of METTL3 in human Lenvatinib-resistant Huh7/Len cells assessed as effect on CRB3 mRNA expression level at 2 uM incubated for 72 hrs by RT-PCR analysis; type: cell-based
[19] = Toxicity in BALB/c nude mouse PDX model xenografted with human Lenvatinib-resistant HCC/Len cells assessed as changes in body weight at 1.5 mg/kg, ip administered 5 times per week for 3 weeks; type: organism-based; settings: in vivo, 504 h
[20] = tested on: Lenvatinib-resistant Hep3B/Len; assay: Antiproliferative activity against human Lenvatinib-resistant Hep3B/Len cells assessed as inhibition of cell viability up to 40 uM after 72 hrs by CCK-8 assay; type: functional, cell-based
[21] = target: N6-adenosine-methyltransferase catalytic subunit (Homo sapiens) (UniProt Q86U44); assay: Inhibition of METTL3 in human Lenvatinib-resistant Huh7/Len cells assessed as effect on LATS1 mRNA expression level at 2 uM incubated for 72 hrs by RT-PCR analysis; type: cell-based
[22] = tested on: Lenvatinib-resistant HCC/Len; assay: Antitumor activity against human Lenvatinib-resistant HCC/Len cells xenografted in BALB/c nude mouse model of PDX assessed as inhibition of tumor volume at 1.5 mg/kg, ip cotreated with lenvatinib 5 times per week for 3 weeks; type: functional; settings: 504 h
[23] = tested on: Lenvatinib-resistant Huh7/Len; assay: Antiproliferative activity against human Lenvatinib-resistant Huh7/Len cells assessed as inhibition of cell viability at 5 uM uM after 72 hrs in presence of lenvatinib by CCK-8 assay; type: functional, cell-based
[24] = target: N6-adenosine-methyltransferase catalytic subunit (Homo sapiens) (UniProt Q86U44); assay: Inhibition of METTL3 in human Lenvatinib-resistant Huh7/Len cells assessed as effect on TIBIM6 mRNA expression level at 2 uM incubated for 72 hrs by RT-PCR analysis; type: cell-based
[25] = target: N6-adenosine-methyltransferase catalytic subunit (Homo sapiens) (UniProt Q86U44); assay: Inhibition of METTL3 in human Huh-7 cells assessed as down regulation of m6A RNA level at 2 uM incubated for 72 hrs by Dot blot assay; type: cell-based
[26] = tested on: Lenvatinib-resistant Huh7/Len; assay: Anticancer activity against human Lenvatinib-resistant Huh7/Len cells assessed as reduction in UBE3B mRNA expression at 2 uM by qPCR analysis; type: functional, cell-based
[27] = target: N6-adenosine-methyltransferase catalytic subunit (Homo sapiens) (UniProt Q86U44); assay: Inhibition of METTL3 in human Lenvatinib-resistant Huh7/Len cells assessed as effect on MMP13 mRNA expression level at 2 uM incubated for 72 hrs by RT-PCR analysis; type: cell-based
[28] = tested on: Lenvatinib-resistant Huh7/Len; assay: Antiproliferative activity against human Lenvatinib-resistant Huh7/Len cells assessed as inhibition of clone formation ability at 5 uM preincubated for 72 hrs and measured after 7 to 10 days in presence of lenvatinib by crystal violet staining based assay; type: functional, cell-based; settings: time 10-13 day
[29] = tested on: Lenvatinib-resistant Hep3B/Len; assay: Antiproliferative activity against human Lenvatinib-resistant Hep3B/Len cells assessed as inhibition of clone formation ability at 5 uM preincubated for 72 hrs and measured after 7 to 10 days in presence of lenvatinib by crystal violet staining based assay; type: functional, cell-based; settings: time 10-13 day
[30] = tested on: Lenvatinib-resistant Hep3B/Len; assay: Inhibition of cell migration in human Lenvatinib-resistant Hep3B/Len cells at 5 uM incubated for 48 hrs by transwell assay; type: functional, cell-based
[31] = target: N6-adenosine-methyltransferase catalytic subunit (Homo sapiens) (UniProt Q86U44); assay: Inhibition of METTL3 in human Lenvatinib-resistant Huh7/Len cells assessed as effect on IFIT2 mRNA expression level at 2 uM incubated for 72 hrs by RT-PCR analysis; type: cell-based

What does the source list for `CN1[C@@H](CC(=O)c2ccccc2)CCC[C@H]1C[C@H](O)c1ccccc1` [LOBELINE]?
inhibition [1]: inactive; inhibition [2]: Active; Activity [3]: inactive; inhibition [4]: Active; TGI [5]: Active; Activity [6]: Active; inhibition [7]: Active; Activity [8]: Active; inhibition [9]: Active; Activity [10]: inactive; inhibition [11]: Active; Activity [12]: Active; inhibition [13]: Active; Activity [14]: Non-Toxic; inhibition [15]: 11%; inhibition [16]: Active; inhibition [17]: Active; inhibition [18]: Active; Activity [19]: Non-Toxic; inhibition [20]: Active; inhibition [21]: Active; inhibition in vivo at 1.5 mg/kg [22]: 60%; inhibition [23]: Active; inhibition [24]: Active; inhibition [25]: Active; Activity [26]: Active; inhibition [27]: Active; inhibition [28]: inactive; inhibition [29]: inactive; inhibition [30]: inactive; inhibition [31]: Active

— ChEMBL document CHEMBL5584314, “Identification of an m6A Natural Inhibitor, Lobeline, That Reverses Lenvatinib Resistance in Hepatocellular Tumors” (J Nat Prod, 2024)
